According to patent US20250387359A1, “COMPOUNDS AND METHODS FOR THE TREATMENT OF PARASITIC INFECTIONS” (THE BOARD OF TRUSTEES OF THE UNIVERSITY OF ILLINOIS, priority 2019, published 2025):

Experiment: Tolerability in mice
Assay type: in vivo
Details: B6.129S7-Ifng (gamma interferon knockout), mouse, in vivo, po, 7 days
Method: In vivo testing of the anti-Cryptosporidium effect of CpLDH inhibitors. Gamma interferon knockout mice (B6.129S7-Ifng), 8 weeks of age, were purchased from Charles River, USA. The care and use of the mice was done following the guidelines of protocol number 17024 approved by the University of Illinois at Urbana-Champaign, USA. The animals were allowed to acclimatize for 1 week before experiments commenced. Stock solutions of recombinant CpLDH inhibitors reconstituted in DMSO were diluted in sterile distilled water to reduce the final amount of DMSO in the solution to less than 1% (v/v) before administering them to mice. Prior to testing the anti-Cryptosporidium effect of the inhibitors in mice, the tolerability of each inhibitor was tested by oral gavage using varying dosages (100-2000 mg/kg body weight) of each inhibitor in groups of mice (three mice for each dose) daily for 7 days. Mice were observed daily for signs of toxicity including changes from normal physical activity, respiration, body temperature, feeding, posture, fur condition or occurrence of death. […] An equivalent volume of PBS containing a cocktail of penicillin (100 units/ml), streptomycin (100 μg/ml), chloramphenicol (34 μg/ml) and amphotericin (0.25 μg/ml) was added to the fecal samples and stored at 4° C. until use for quantification of C. parvum genomic DNA load. […]

O=C1c2ccccc2C(=O)c2c(O)c(O)cc(O)c21 [NSC10447]
highest tolerable dose (no toxicity signs): 1000 mg/kg
